“And” between values parts separate entries of the source, which are not always exact repeats. Identical values can stand only once.
Tests used:
[1] = target: T1, mGlu1 E60H/N264H mutant (Rattus norvegicus, UniProt P23385, E60H/N264H); assay: Fura-2 Ca2+ imaging in HEK293 cells expressing mGlu1 E60H/N264H; type: cell-based
T1 construct: expressed in transfected cells; host or cells: HEK293

[2] = target: T2, mGlu1 K61H/N264H mutant (Rattus norvegicus, UniProt P23385, K61H/N264H); assay: Fura-2 Ca2+ imaging in HEK293 cells expressing mGlu1 K61H/N264H; type: cell-based
T2 construct: expressed in transfected cells; host or cells: HEK293

[3] = tested on: mGlu1 construct not given; assay: Fura-2 Ca2+ imaging in HEK293 cells, source data Suppl Fig1, right group (c18-c26); construct not given; type: cell-based, rat; details: single-cell values, cells #15-#20; right group of third block
Text: (§1) Supplement 41467_2022_30828_MOESM6_ESM.zip/Ojima et al_source data_Suppl Fig.xlsx, sheet "Suppl Fig1" | column: Glu; NiCl2; CuCl2; ZnCl2; CdCl2; Na2PdCl2; Pd(bpy)

[4] = tested on: HEK293 cells, vector control; assay: Fura-2 Ca2+ imaging in HEK293 cells transfected with control vector (Vec); type: cell-based; details: Fig.1e
Text: Supplement 41467_2022_30828_MOESM6_ESM.zip/Ojima et al_source data_Main Figure.xlsx, sheet "Fig.1e" | column: Vec

[5] = target: T3, mGlu1 A59H/N264H mutant (Rattus norvegicus, UniProt P23385, A59H/N264H); assay: Fura-2 Ca2+ imaging in HEK293 cells expressing mGlu1 A59H/N264H; type: cell-based
T3 construct: expressed in transfected cells; host or cells: HEK293

[6] = tested on: mGlu1 construct not given; assay: Fura-2 Ca2+ imaging in HEK293 cells, source data Suppl Fig1, left group (c0-c8); construct not given; type: cell-based, rat; details: single-cell values, cells #15-#20; left group of third block
Text: as §1

[7] = target: T4, mGlu1 A59H/A265H mutant (Rattus norvegicus, UniProt P23385, A265H/A59H); assay: Fura-2 Ca2+ imaging in HEK293 cells expressing mGlu1 A59H/A265H; type: cell-based; details: Fig.1e
T4 construct: expressed in transfected cells; host or cells: HEK293

[8] = target: T5, WT mGlu1 (Rattus norvegicus, UniProt P23385); type: cell-based
T5 construct: expressed in transfected cells; host or cells: HEK293

[9] = target: T6, mGlu1 A59H/G266H mutant (Rattus norvegicus, UniProt P23385, A59H/G266H); assay: Fura-2 Ca2+ imaging in HEK293 cells expressing mGlu1 A59H/G266H; type: cell-based; details: single-cell values
T6 construct: expressed in transfected cells; host or cells: HEK293

[10] = target: T6, mGlu1 A59H/G266H mutant; assay: as above; type: cell-based; details: Fig.1e
[11] = target: T7, mGlu1 P57H/N264H mutant (Rattus norvegicus, UniProt P23385, N264H/P57H); assay: Fura-2 Ca2+ imaging in HEK293 cells expressing mGlu1 P57H/N264H; type: cell-based
T7 construct: expressed in transfected cells; host or cells: HEK293

[12] = tested on: mGlu1 construct not given; assay: Fura-2 Ca2+ imaging in HEK293 cells, source data Suppl Fig1, middle group (c9-c17); construct not given; type: cell-based, rat; details: single-cell values, cells #15-#20; middle group of third block
Text: as §1

[13] = tested on: HEK293 cells, vector control; assay: Fura-2 Ca2+ imaging in HEK293 cells transfected with control vector (Vec); type: cell-based; details: single-cell values #1-#20
[14] = target: T8, mGlu1 P58H/N264H mutant (Rattus norvegicus, UniProt P23385, N264H/P58H); assay: Fura-2 Ca2+ imaging in HEK293 cells expressing mGlu1 P58H/N264H; type: cell-based
T8 construct: expressed in transfected cells; host or cells: HEK293

[15] = target: T4, mGlu1 A59H/A265H mutant; assay: Fura-2 Ca2+ imaging in HEK293 cells expressing mGlu1 A59H/A265H; type: cell-based; details: single-cell values
[16] = tested on: MLIs surrounded by mGlu1(N264H)-expressing Purkinje cells (AAV-L7-mGlu1^CBC); assay: sAP-mediated currents (firing rate) of MLIs in slices infected with AAV-L7-mGlu1^CBC; type: cell-based, mouse; details: AAV-L7-mGlu1CBC;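 note: 10 µM Pd complex applied to the bath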
Protocol: (§2) To monitor the excitability of MLIs, sAP-mediated current responses were extracellulary recorded by a loose cell-attached voltage-clamp at a holding potential of 0 mV. Glass electrodes used for cell-attached recordings had resistances of 3–5 MΩ when filled with ACSF. The current recordings from AAV-infected cells were performed 1−2 weeks after infection. The EPSCs and sAP-mediated currents were recorded using an Axopatch 200B amplifier (Molecular Devices), and the pClamp system (version 9.2; Molecular Devices) was used for data acquisition and analysis. The signals were filtered at 1 kHz and digitized at 4 kHz for the evoked EPSCs and 10 kHz for the sAP-mediated currents.
(§3) Injection of viral solutions was performed as described previously with slight modifications. Briefly, under deep anesthesia, with an intraperitoneal injection of medetomidine (0.3 mg/kg), midazolam (4.0 mg/kg), and butorphanol (5.0 mg/kg), 4 µL of the solutions containing AAV mixture were directly injected into the vermis of cerebellar lobules V-VIII (200-300 µm in depth, 12 µL/h in rate) of WT mice (C57BL/6J, P20-P30) using glass pipette (30–40 µm in diameter) and microinjector (Nanoliter; World Precision Instruments). In all, 1−2 week after injection, the mice were used for each experiment.

[17] = tested on: MLIs infected with AAV-hSyn-mGlu1^CBC; assay: sAP-mediated currents (firing rate) of MLIs infected with AAV-hSyn-mGlu1^CBC; type: cell-based, mouse; details: AAV-hSyn-mGlu1CBC;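 note: 10 µM Pd complex applied to the bath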
Protocol: as §2, §3

[18] = tested on: MLIs infected with AAV-hSyn-mGlu1^WT; assay: sAP-mediated currents (firing rate) of MLIs infected with AAV-hSyn-mGlu1^WT; type: cell-based, mouse; details: AAV-hSyn-mGlu1WT;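 note: 10 µM Pd complex applied to the bath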
Protocol: as §2, §3

[19] = 10 μM metal ion or metal complex
[20] = ratio of sAP-mediated currents Pd vs CTL

T1 sequence (P23385 19-1199 E60H/N264H): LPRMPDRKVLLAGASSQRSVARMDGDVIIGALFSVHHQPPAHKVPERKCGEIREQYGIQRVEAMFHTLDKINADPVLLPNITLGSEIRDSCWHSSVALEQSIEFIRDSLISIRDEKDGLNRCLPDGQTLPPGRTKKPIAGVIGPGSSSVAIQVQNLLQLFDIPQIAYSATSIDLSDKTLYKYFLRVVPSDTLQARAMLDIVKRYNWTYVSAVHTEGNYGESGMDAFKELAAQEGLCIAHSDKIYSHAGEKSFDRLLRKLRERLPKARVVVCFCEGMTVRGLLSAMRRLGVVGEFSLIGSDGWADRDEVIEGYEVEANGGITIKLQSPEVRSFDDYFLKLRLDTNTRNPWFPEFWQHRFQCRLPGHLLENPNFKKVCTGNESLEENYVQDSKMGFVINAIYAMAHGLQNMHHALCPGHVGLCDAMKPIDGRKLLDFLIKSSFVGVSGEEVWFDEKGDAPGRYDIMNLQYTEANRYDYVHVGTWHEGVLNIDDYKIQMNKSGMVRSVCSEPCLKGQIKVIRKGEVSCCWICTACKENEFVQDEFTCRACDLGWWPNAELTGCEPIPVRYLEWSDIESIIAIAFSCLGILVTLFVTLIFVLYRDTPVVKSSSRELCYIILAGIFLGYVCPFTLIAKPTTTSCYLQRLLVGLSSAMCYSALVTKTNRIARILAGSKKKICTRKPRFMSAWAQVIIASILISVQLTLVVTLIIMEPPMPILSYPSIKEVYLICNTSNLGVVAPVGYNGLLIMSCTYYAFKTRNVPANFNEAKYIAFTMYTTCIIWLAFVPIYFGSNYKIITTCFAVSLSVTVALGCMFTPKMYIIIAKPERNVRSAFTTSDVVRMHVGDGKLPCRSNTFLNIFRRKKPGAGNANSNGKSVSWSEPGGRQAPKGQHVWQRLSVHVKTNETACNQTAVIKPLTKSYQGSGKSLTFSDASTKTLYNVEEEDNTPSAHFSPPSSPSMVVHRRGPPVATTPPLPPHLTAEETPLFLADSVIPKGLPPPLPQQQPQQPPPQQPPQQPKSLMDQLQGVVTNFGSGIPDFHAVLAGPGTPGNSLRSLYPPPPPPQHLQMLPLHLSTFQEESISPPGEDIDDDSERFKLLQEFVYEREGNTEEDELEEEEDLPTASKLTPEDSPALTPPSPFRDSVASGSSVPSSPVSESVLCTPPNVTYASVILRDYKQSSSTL
T2 sequence (P23385 19-1199 K61H/N264H): as the sequence (P23385 19-1199 E60H/N264H) above, with H42E, K43H counted along it
T4 sequence (P23385 19-1199 A59H/A265H): as the sequence (P23385 19-1199 E60H/N264H) above, with A41H, H42E, H246N, A247H counted along it
T7 sequence (P23385 19-1199 P57H/N264H): as the sequence (P23385 19-1199 E60H/N264H) above, with P39H, H42E counted along it
T6 sequence (P23385 19-1199 A59H/G266H): as the sequence (P23385 19-1199 E60H/N264H) above, with A41H, H42E, H246N, G248H counted along it
T3 sequence (P23385 19-1199 A59H/N264H): as the sequence (P23385 19-1199 E60H/N264H) above, with A41H, H42E counted along it
T8 sequence (P23385 19-1199 P58H/N264H): as the sequence (P23385 19-1199 E60H/N264H) above, with P40H, H42E counted along it
T5 sequence (P23385 19-1199): as the sequence (P23385 19-1199 E60H/N264H) above, with H42E, H246N counted along it

## [Cl][Cd][Cl] [CdCl2]
[1]; Fig.1e
  Ca2+ response (delta ratio), E60H/N264H: -0.01186
[1]; single-cell values #1-#20, E60H/N264H
  Ca2+ response of individual cells (source data Suppl Fig1), E60H/N264H: -0.009869 and -0.0139 and -0.008638 and -0.01472 and -0.009062 and -0.006669 and -0.004677 and -0.01493 and -0.004954 and 0.001138 and -0.005708 and -0.002215 and 0.01407 and 0.02235 and -0.01174 and -0.009823 and -0.008654 and -0.007631 and -0.02142 and -0.1201
[2]; Fig.1e
  Ca2+ response (delta ratio), K61H/N264H: 0.01695
[2]; single-cell values, K61H/N264H
  Ca2+ response of individual cells (source data Suppl Fig1), K61H/N264H: 0.003946 and -0.03622 and -0.01614 and -0.01244 and -0.01964 and -0.05083 and -0.008715 and -0.008331 and -0.02813 and 0.002531 and -0.03307 and -0.01172 and 0.5817 and -0.01188
[3]
  Ca2+ response of individual cells (source data, sheet Suppl Fig1): 0.03353 and 0.009331 and 0.006908 and 0.01689 and -0.009408 and 0.005315
[4]
  Ca2+ response (delta ratio), Vec: -0.03216
[5]; Fig.1e
  Ca2+ response (delta ratio), A59H/N264H: 0.02484
[5]; single-cell values #1-#20, A59H/N264H
  Ca2+ response of individual cells (source data Suppl Fig1), A59H/N264H: 0.2588 and -0.01875 and -0.0009538 and 0.004669 and -0.003354 and -0.0081 and -0.03695 and -0.009438 and -0.004808 and -0.01072 and -0.01152 and -0.03409 and 0.4867 and -0.01683 and -0.02968 and -0.006508 and -0.0288 and -0.01271 and -0.01325 and -0.006908
[6]
  Ca2+ response of individual cells (source data, sheet Suppl Fig1): -0.005954 and 0.01795 and 0.005315 and -0.02397 and -0.001754 and -0.003654
[7]
  Ca2+ response (delta ratio), A59H/A265H: 0.02642
[8]; Fig.1e
  Ca2+ response (delta ratio), WT: 0.005362
[8]; single-cell values #1-#20, WT
  Ca2+ response of individual cells (source data Suppl Fig1), WT: 0.0129 and 0.04075 and 0.009069 and 0.006385 and -0.009131 and -0.006215 and 0.2594 and 0.005608 and -0.007808 and -0.007346 and 0.0007769 and -0.1317 and -0.001 and -0.06408 and -0.004269 and 0.01558 and -0.01997 and 0.01184 and 0.001662 and -0.005277
[9]
  Ca2+ response of individual cells (source data Suppl Fig1), A59H/G266H: -0.01723 and 0.01558 and 0.01066 and 0.005608 and 0.01182 and 0.0279 and -0.1123 and -0.0058 and -0.01721 and 0.02262 and 0.01814 and -0.006169 and -0.01936 and 0.04175
[10]
  Ca2+ response (delta ratio), A59H/G266H: 0.001928
[11]; Fig.1e
  Ca2+ response (delta ratio), P57H/N264H: 0.03091
[11]; single-cell values #1-#20, P57H/N264H
  Ca2+ response of individual cells (source data Suppl Fig1), P57H/N264H: -0.01735 and -0.005323 and -0.01104 and -0.01126 and -0.0097 and -0.003008 and -0.01663 and -0.0067 and -0.01865 and 0.6823 and 0.01155 and -0.0096 and 0.03494 and -0.09688 and -0.01634 and 0.024 and 0.009592 and -0.004469 and 0.09844 and -0.01566
[12]
  Ca2+ response of individual cells (source data, sheet Suppl Fig1): 0.01055 and 0.01355 and -0.009131 and -0.01706 and 0.009777 and -0.01645
[13]
  Ca2+ response of individual cells (source data Suppl Fig1), Vec: -0.01042 and -0.01834 and -0.01502 and -0.05052 and -0.04072 and -0.03065 and -0.02875 and -0.03001 and -0.006638 and -0.04038 and -0.04515 and -0.04559 and -0.05998 and -0.01618 and -0.0239 and -0.03979 and -0.02847 and -0.03687 and -0.04005 and -0.03582
[14]; Fig.1e
  Ca2+ response (delta ratio), P58H/N264H: -0.005715
[14]; single-cell values #1-#20, P58H/N264H
  Ca2+ response of individual cells (source data Suppl Fig1), P58H/N264H: 0.0003 and -0.006238 and 0.002354 and -0.001808 and -0.01828 and -0.02019 and -0.005077 and -0.009385 and -0.005592 and -0.02068 and -0.009223 and 0.09017 and -0.003262 and -0.06371 and -0.003885 and -0.002246 and -0.002192 and 0.0005231 and -0.03079
[15]
  Ca2+ response of individual cells (source data Suppl Fig1), A59H/A265H: 0.002869 and 0.004277 and -0.0003846 and 0.01228 and 0.01648 and -0.01175 and -0.03786 and 0.01586 and 0.002777 and 0.3308 and 0.2114 and -0.005654 and -0.02447 and 0.0205

## [Pd+2] [Pd^2+]
[1]; [19]
  Receptor activation ([Ca2+]i change, Δratio): also activated
[16]; Pd
  firing rate with Pd, AVE(Hz): 8.376 Hz
  number of sAP-mediated currents with Pd, individual MLIs: 269 and 246 and 275 and 319 and 316 and 259 and 286 and 137 and 343 and 147 and 282 and 292 and 186
[16]; Pd, average of 15 MLIs
  number of sAP-mediated currents with Pd, AVE: 251.267
[16]; average of 15 MLIs
  Pd/CTL, AVE: 1.024
[16]; [20]
  Pd/CTL, individual MLIs: 0.9181 and 1.134 and 0.9516 and 1.085 and 1.01 and 1.008 and 1.018 and 1.161 and 1.003 and 1.105 and 0.9786 and 0.9216 and 1.028 and 0.9928 and 1.051
[17]; Pd
  firing rate with Pd, AVE(Hz): 9.847 Hz
[17]; Pd, average of 22 MLIs
  number of sAP-mediated currents with Pd, AVE: 295.409
[17]; average of 22 MLIs
  Pd/CTL, AVE: 1.392
[17]; [20]
  Pd/CTL, individual MLIs: 1.204 and 2.167 and 1.052 and 0.9801 and 1.6822 and 1.455 and 1.074 and 1.288 and 1.082 and 1.081 and 1.083 and 2.412 and 1.119 and 3.478 and 1.177 and 1.12 and 1.045 and 1.16 and 1.215 and 1.142 and 1.333 and 1.265
[2]; [19]
  Receptor activation ([Ca2+]i change, Δratio): also activated
[18]; Pd
  firing rate with Pd, AVE(Hz): 8.021 Hz
  number of sAP-mediated currents with Pd, individual MLIs: 195 and 227 and 165 and 235 and 230 and 276 and 213 and 238 and 272 and 431 and 142 and 211 and 228 and 253 and 240 and 294
[18]; Pd, average of 16 MLIs
  number of sAP-mediated currents with Pd, AVE: 240.625
[18]; average of 16 MLIs
  Pd/CTL, AVE: 1.02
[18]; [20]
  Pd/CTL, individual MLIs: 0.9466 and 0.8833 and 1.065 and 1.119 and 1.05 and 1.091 and 1.081 and 0.9958 and 0.8947 and 1.005 and 0.9161 and 0.8474 and 1.013 and 1.182 and 1.106 and 1.126
[14]; [19]
  Receptor activation ([Ca2+]i change, Δratio): also activated

— PMC9203742 (Nature Communications, 2022)
